Numbered stars: 1 amine (or outer) side, 2 acyl side, 3 side chain; on linkers, the order of the positions; unused ones are H or OH. Bridge positions count the residues as written; N and C are the ends. Peptide text beside a SMILES is read from it. * marks the point of attachment. C20 diacid = O=C(O)CCCCCCCCCCCCCCCCCCC(=O)*; γGlu = O=C(O)[C@H](CCC(=O)[*:2])N[*:1]
Experiments:
[1] = ASSAY (III) ThT fibrillation assay for physical stability; format: physicochemical
Outline: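 Physical stability scored by ThT fluorescence (444 nm excitation, 485 nm emission) tracked every 20 min during 37 °C incubation with 960 rpm shaking, ThT at 1 μM final. Values are replicate means with SD at chosen times; HPLC against pramlintide standard gives initial and post-assay soluble concentrations.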

[2] = target: T1, human amylin receptor (membranes from Amylin 3(a)/CRE-luc cells) (Homo sapiens, UniProt O60896+P30988); assay: ASSAY (V) binding to the human amylin receptor (SPA, 125I-rat amylin);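 further: competition binding of cell membranes (35 ng/µL) mixed with SPA beads in 384-well plates at 40 µL total volume, read by scintillation counting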
T1 construct: expressed in transfected cells
T1 sequence (P30988 25-474): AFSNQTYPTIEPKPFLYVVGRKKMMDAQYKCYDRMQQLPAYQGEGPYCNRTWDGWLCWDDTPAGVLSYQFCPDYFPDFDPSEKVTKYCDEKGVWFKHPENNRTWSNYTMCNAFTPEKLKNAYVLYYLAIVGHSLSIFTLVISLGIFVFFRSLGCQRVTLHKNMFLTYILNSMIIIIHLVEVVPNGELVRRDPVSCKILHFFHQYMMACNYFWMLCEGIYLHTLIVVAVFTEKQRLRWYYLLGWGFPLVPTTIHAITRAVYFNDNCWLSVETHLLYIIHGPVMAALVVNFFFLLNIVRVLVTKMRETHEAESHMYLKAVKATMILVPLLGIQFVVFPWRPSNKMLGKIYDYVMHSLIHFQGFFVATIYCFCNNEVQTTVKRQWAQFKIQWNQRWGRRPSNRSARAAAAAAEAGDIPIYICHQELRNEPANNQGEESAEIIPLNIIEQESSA
T1 sequence (O60896 24-148 partner): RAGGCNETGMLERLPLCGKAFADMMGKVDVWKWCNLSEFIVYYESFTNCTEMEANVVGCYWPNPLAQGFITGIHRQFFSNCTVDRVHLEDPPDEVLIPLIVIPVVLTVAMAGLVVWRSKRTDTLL

[3] = Table 5, selectivity, hCTR bind IC50 / hAmylin-R bind IC50
[4] = Table 5a, selectivity, hCTR bind IC50 / hAmylin-R bind IC50
[5] = Table 7, human binding selectivity, included for comparison
[6] = Table 7a (preferred compounds), human binding selectivity, included for comparison
[7] = ratio of human calcitonin receptor binding IC50 to human amylin receptor binding IC50

ThT pH 4.0 lag time (h) [1] [h] | Ratio hCT/hAmylin binding [2, 3] | Ratio hCT/hAmylin binding [2, 4] | Ratio hCT/hAmylin binding ([2]; Table 5b, selectivity, hCTR bind IC50 / hAmylin-R bind IC50) | Ratio hCT/hAmylin binding ([2]; Table 5c, selectivity, hCTR bind IC50 / hAmylin-R bind IC50) | Ratio hCT/hAmylin binding [2, 5] | Ratio hCT/hAmylin binding [2, 6] | Ratio hCT/hAmylin binding [2, 7] | SMILES
24 | 48.9 | 48.9 | 48.9 | 48.9 | 48.9 | 48.9 | 48.9 | CC[C@H](C)[C@H](NC(=O)[C@H](C)NC(=O)CNC(=O)[C@H](Cc1ccccc1)NC(=O)[C@H](CC(N)=O)NC(=O)[C@@H]1CCCN1C(=O)[C@H](CO)NC(=O)[C@H](CO)NC(=O)[C@H](Cc1c[nH]cn1)NC(=O)[C@H](CCCNC(=N)N)NC(=O)[C@H](CC(C)C)NC(=O)[C@H](Cc1ccccc1)NC(=O)[C@H](CC(N)=O)NC(=O)[C@H](C)NC(=O)[C@H](CC(C)C)NC(=O)[C@H](CCCNC(=N)N)NC(=O)[C@H](CCC(N)=O)NC(=O)[C@@H](NC(=O)[C@H](C)NC(=O)[C@@H]1CSSC[C@H](NC(=O)[C@H](CCCNC(=N)N)NC(=O)CNC(=O)CC[C@H](NC(=O)CCCCCCCCCCCCCCCCCCC(=O)O)C(=O)O)C(=O)N[C@@H](CC(N)=O)C(=O)N[C@@H]([C@@H](C)O)C(=O)N[C@@H](C)C(=O)N[C@@H]([C@@H](C)O)C(=O)N1)[C@@H](C)O)C(=O)N1CCC[C@H]1C(=O)N[C@@H](CO)C(=O)N[C@@H](CO)C(=O)N[C@H](C(=O)N[C@@H](CC(N)=O)C(=O)N[C@H](C(=O)NCC(=O)N[C@@H](CO)C(=O)N[C@@H](CC(N)=O)C(=O)N[C@H](C(=O)N[C@@H](Cc1ccc(O)cc1)C(N)=O)[C@@H](C)O)C(C)C)[C@@H](C)O [Example 46] ({C20 diacid-γGlu}-GRCNTATCATQRLANFLRHSSPNFGAIPSSTNVGSNTY-NH2; disulfide 3-8 (inferred))
8 | 10.8 | 10.8 | – | – | 10.8 | 10.8 | 10.8 | CC[C@H](C)[C@H](NC(=O)[C@H](C)NC(=O)CNC(=O)[C@H](Cc1ccccc1)NC(=O)[C@H](CC(N)=O)NC(=O)[C@@H]1CCCN1C(=O)[C@H](CO)NC(=O)[C@H](CO)NC(=O)[C@H](Cc1c[nH]cn1)NC(=O)[C@H](CCCNC(=N)N)NC(=O)[C@H](CC(C)C)NC(=O)[C@H](Cc1ccccc1)NC(=O)[C@H](CC(N)=O)NC(=O)[C@H](C)NC(=O)[C@H](CC(C)C)NC(=O)[C@H](CCCNC(=N)N)NC(=O)[C@H](CCC(N)=O)NC(=O)[C@@H](NC(=O)[C@H](C)NC(=O)[C@@H]1CSSC[C@H](NC(=O)[C@@H](N)CCCCNC(=O)COCCOCCNC(=O)CC[C@H](NC(=O)CCCCCCCCCCCCCCCCCCC(=O)O)C(=O)O)C(=O)N[C@@H](CC(N)=O)C(=O)N[C@@H]([C@@H](C)O)C(=O)N[C@@H](C)C(=O)N[C@@H]([C@@H](C)O)C(=O)N1)[C@@H](C)O)C(=O)N1CCC[C@H]1C(=O)N[C@@H](CO)C(=O)N[C@@H](CO)C(=O)N[C@H](C(=O)N1CCC[C@H]1C(=O)N[C@H](C(=O)NCC(=O)N[C@@H](CO)C(=O)N[C@@H](CC(N)=O)C(=O)N[C@H](C(=O)N[C@@H](Cc1ccc(O)cc1)C(N)=O)[C@@H](C)O)C(C)C)[C@@H](C)O [Example 49]

From patent US9023789B2, “Amylin analogs and pharmaceutical compositions thereof” (Novo Nordisk A/S, priority 2012, dated 2015)
